The assay has as its target MAPKAPK2 (Homo sapiens, UniProt P49137). The experiment in a line: HTS ATP-utilizing enzyme assay, off-chip mobility-shift (Caliper HTS 250). Type of assay: biochemical. To be noted: test compound 10 μM, kinase listed = active (greater than six-sigma from the mean activity of inactive compounds). The source says:
The following procedures describe the reagent and plate preparation for a HTS of an ATP-utilizing enzyme, such as a protein kinase, run in an off-chip mobility-shift assay format. The following provides an HTS protocol for running a protein kinase HTS screen on a Caliper HTS 250 microfluidics system. The following parameters are dependent on the protein kinase used and can be determined by one skilled in the art as part of a typical assay development process. For example, the peptide substrate used can be identified from the current literature, by screening a peptide library of potential protein kinase substrates, or by other applicable means accepted in the field.
The following table provides typical screen assay parameters appropriate for a Caliper HTS 250 microfluidics system.
The reagents and buffers listed in the following table are generally applicable for developing and running an HTS screen on a human protein kinase using the Caliper HTS 250 system.
The following reagents were prepared using the previously described buffers.
A 2× Master Buffer solution was prepared by combining 200 mL of 1 M HEPES, pH 7.5, 2 mL of 10% Triton X-100, 20 mL of 10% BSA, and 778 mL of H2O.
A TCB Buffer solution was prepared by combining 125 mL of 2× Master Buffer, 10 mL of 0.5 M EDTA, 6.25 mL of 4% coating reagent, 1.01 mL of 100% DMSO, and 107.74 mL H2O.
Assays to determine the kinase inhibitory activity of compounds of the present disclosure were performed using a Caliper HTS 250 microfluidics device, Greiner U-bottom assay plates, a Multidrop for transfer of reagents, and Biomek FX (AMNCBM03) software. Initially, 2.4 μL of a 1 mM solution of a test compound in 100% DMSO was added to a well of the Greiner U-bottom plate. A single Greiner U-bottom plate having 24×16 wells could include multiple test compounds. […] Using the Biomek FX, 10 μL of 0.5 M EDTA was added by the span-8 to wells, indicated as 100% Control and 2.4 μL of 100% DMSO was added by the span-8 to wells, indicated as 0% Control. […] The total reaction volume in each well was 25 μL, and the concentration of the test compound was 10 μM. The assay plate was incubated for 2.5 hrs at 20° C. to 22° C. […] The inhibition of the ATP-utilizing enzyme, such as a particular protein kinase, was determined by measuring the ratio of the peptide substrate to phosphorylated product for each well of the assay plate using the Caliper HTS 250 system.
The use of six-sigma statistical limits represents a conservative method for declaring potential hits among targets. The six-sigma activity, as well as the mean population activity, can be different for each target enzyme.

Molecules are shown by their SMILES.

Sequence of MAPKAPK2 (P49137 whole entry): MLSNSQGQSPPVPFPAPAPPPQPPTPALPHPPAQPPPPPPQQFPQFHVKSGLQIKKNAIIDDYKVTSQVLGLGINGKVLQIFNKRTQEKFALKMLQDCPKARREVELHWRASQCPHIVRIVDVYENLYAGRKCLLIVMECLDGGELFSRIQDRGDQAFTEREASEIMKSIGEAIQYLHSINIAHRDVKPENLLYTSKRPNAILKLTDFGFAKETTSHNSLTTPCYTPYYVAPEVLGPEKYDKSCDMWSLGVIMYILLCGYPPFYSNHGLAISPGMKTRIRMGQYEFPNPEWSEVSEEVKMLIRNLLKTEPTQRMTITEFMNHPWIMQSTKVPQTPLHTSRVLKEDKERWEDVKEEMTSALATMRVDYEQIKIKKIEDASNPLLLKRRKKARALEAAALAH

With `CC(=O)N1CCc2cc(-c3ccc4nccc(Nc5ccc(N6CCC(N(C)C)C6)cc5)c4c3)ccc21` (stereo not drawn) [1-(5-(4-(4-(3-(dimethylamino)pyrrolidin-1-yl)phenylamino)quinolin-6-yl)indolin-1-yl)ethanone], the Activity entry is “MAPKAPK2”.

As for `CN1CCN(c2ccc(Nc3ccnc4ccc(-c5ccccc5C(N)=O)cc34)cc2)CC1` [2-(4-(4-(4-methylpiperazin-1-yl)phenylamino)quinolin-6-yl)benzamide], the Activity entry was “MAPKAPK2”.

Regarding `CN(C)C(=O)CN1CCN(c2ccc(Nc3ccnc4ccc(-c5ccc(C#N)cc5)cc34)cc2)CC1` [2-(4-(4-(6-(4-cyanophenyl)quinolin-4-ylamino)phenyl)piperazin-1-yl)-N,N-dimethylacetamide], the Activity result is “MAPKAPK2”.

`COc1ccc(-c2ccc3nccc(Nc4ccc(N5CCN(CC(=O)N(C)C)CC5)cc4)c3c2)cc1` [2-(4-(4-(6-(4-methoxyphenyl)quinolin-4-ylamino)phenyl)piperazin-1-yl)-N,N-dimethylacetamide]: the Activity entry is on record as “MAPKAPK2”.

Take `COc1ccc(-c2ccc3nccc(Nc4ccc(N5CCN(CCO)CC5)cc4)c3c2)cc1` [2-(4-(4-(6-(4-methoxyphenyl)quinolin-4-ylamino)phenyl)piperazin-1-yl)ethanol]: the Activity entry is “MAPKAPK2”.

On to `OCCN1CCN(c2ccc(Nc3ccnc4ccc(-c5ccccc5)cc34)cc2)CC1` [2-(4-(4-(6-phenylquinolin-4-ylamino)phenyl)piperazin-1-yl)ethanol], for which the Activity result was “MAPKAPK2”.

Regarding `CN1CCN(c2ccc(Nc3ccnc4ccc(-c5ccc(CCC(=O)O)cc5)cc34)cc2)CC1` [3-(4-(4-(4-(4-methylpiperazin-1-yl)phenylamino)quinolin-6-yl)phenyl)propanoic acid], the Activity entry is given as “MAPKAPK2”.

As to `COc1ccc(-c2ccc3nccc(Nc4ccc(N5CCN(CCC#N)CC5)cc4)c3c2)cc1` [3-(4-(4-(6-(4-methoxyphenyl)quinolin-4-ylamino)phenyl)piperazin-1-yl)propanenitrile], the Activity result is on record as “MAPKAPK2”.

As for `CN1CCC(c2ccc(Nc3ccnc4ccc(-c5ccc(C#N)cc5)cc34)cc2)CC1` [4-(4-(4-(1-methylpiperidin-4-yl)phenylamino)quinolin-6-yl)benzonitrile], the Activity entry is “MAPKAPK2”.

`CN(C)CC1CCCN1c1ccc(Nc2ccnc3ccc(-c4ccc(C#N)cc4)cc23)cc1` (stereo not drawn) [4-(4-(4-(2-((dimethylamino)methyl)pyrrolidin-1-yl)phenylamino)quinolin-6-yl)benzonitrile]: the Activity result was “MAPKAPK2”.

For `CN(C)CC1CCCN(c2ccc(Nc3ccnc4ccc(-c5ccc(C#N)cc5)cc34)cc2)C1` (stereo not drawn) [4-(4-(4-(3-((dimethylamino)methyl)piperidin-1-yl)phenylamino)quinolin-6-yl)benzonitrile], the Activity entry was “MAPKAPK2”.

On to `CN(Cc1ccccc1)C1CCN(c2ccc(Nc3ccnc4ccc(-c5ccc(C#N)cc5)cc34)cc2)C1` (stereo not drawn) [4-(4-(4-(3-(benzyl(methyl)amino)pyrrolidin-1-yl)phenylamino)quinolin-6-yl)benzonitrile], for which the Activity result was “MAPKAPK2”.

As to `CCN(CC)C1CCN(c2ccc(Nc3ccnc4ccc(-c5ccc(C#N)cc5)cc34)cc2)C1` (stereo not drawn) [4-(4-(4-(3-(diethylamino)pyrrolidin-1-yl)phenylamino)quinolin-6-yl)benzonitrile], the Activity entry is recorded as “MAPKAPK2”.

Turning to `CN(C)C1CCCN(c2ccc(Nc3ccnc4ccc(-c5ccc(C#N)cc5)cc34)cc2)C1` (stereo not drawn) [4-(4-(4-(3-(dimethylamino)piperidin-1-yl)phenylamino)quinolin-6-yl)benzonitrile], the Activity entry is recorded as “MAPKAPK2”.

On to `CN(C)C1CCN(c2ccc(Nc3ccnc4ccc(-c5ccc(C#N)c(F)c5)cc34)cc2)C1` (stereo not drawn) [4-(4-(4-(3-(dimethylamino)pyrrolidin-1-yl)phenylamino)quinolin-6-yl)-2-fluorobenzonitrile], for which the Activity entry was “MAPKAPK2”.

In the case of `Cc1cc(-c2ccc3nccc(Nc4ccc(N5CCC(N(C)C)C5)cc4)c3c2)ccc1C#N` (stereo not drawn) [4-(4-(4-(3-(dimethylamino)pyrrolidin-1-yl)phenylamino)quinolin-6-yl)-2-methylbenzonitrile], the Activity result is “MAPKAPK2”.

Regarding `CN(CCC(F)(F)F)C1CCN(c2ccc(Nc3ccnc4ccc(-c5ccc(C#N)cc5)cc34)cc2)C1` (stereo not drawn) [4-(4-(4-(3-(methyl(3,3,3-trifluoropropyl)amino)pyrrolidin-1-yl)phenylamino)quinolin-6-yl)benzonitrile], the Activity result is listed as “MAPKAPK2”.

Turning to `N#Cc1ccc(-c2ccc3nccc(Nc4ccc(N5CCN(CCO)CC5)cc4)c3c2)cc1` [4-(4-(4-(4-(2-hydroxyethyl)piperazin-1-yl)phenylamino)quinolin-6-yl)benzonitrile], the Activity result is “MAPKAPK2”.

As for `COCCN1CCN(c2ccc(Nc3ccnc4ccc(-c5ccc(C#N)cc5)cc34)cc2)CC1` [4-(4-(4-(4-(2-methoxyethyl)piperazin-1-yl)phenylamino)quinolin-6-yl)benzonitrile], the Activity result is given as “MAPKAPK2”.

For `N#Cc1ccc(-c2ccc3nccc(Nc4ccc(N5CCN(CCCO)CC5)cc4)c3c2)cc1` [4-(4-(4-(4-(3-hydroxypropyl)piperazin-1-yl)phenylamino)quinolin-6-yl)benzonitrile], the Activity entry is on record as “MAPKAPK2”.

`CN(C)CC1CCN(c2ccc(Nc3ccnc4ccc(-c5ccc(C#N)cc5)cc34)cc2)CC1` [4-(4-(4-(4-((dimethylamino)methyl)piperidin-1-yl)phenylamino)quinolin-6-yl)benzonitrile]: the Activity entry was “MAPKAPK2”.

As to `CCC(CC)N1CCN(c2ccc(Nc3ccnc4ccc(-c5ccc(C#N)cc5)cc34)cc2)CC1` [4-(4-(4-(4-(pentan-3-yl)piperazin-1-yl)phenylamino)quinolin-6-yl)benzonitrile], the Activity result is reported as “MAPKAPK2”.

As for `C=CCN1CCN(c2ccc(Nc3ccnc4ccc(-c5ccc(C#N)cc5)cc34)cc2)CC1` [4-(4-(4-(4-allylpiperazin-1-yl)phenylamino)quinolin-6-yl)benzonitrile], the Activity result is recorded as “MAPKAPK2”.

On to `CCCCN1CCN(c2ccc(Nc3ccnc4ccc(-c5ccc(C#N)cc5)cc34)cc2)CC1` [4-(4-(4-(4-butylpiperazin-1-yl)phenylamino)quinolin-6-yl)benzonitrile], for which the Activity result is given as “MAPKAPK2”.

`N#Cc1ccc(-c2ccc3nccc(Nc4ccc(N5CCN(C6CCCCC6)CC5)cc4)c3c2)cc1` [4-(4-(4-(4-cyclohexylpiperazin-1-yl)phenylamino)quinolin-6-yl)benzonitrile]: the Activity entry was “MAPKAPK2”.

With `N#Cc1ccc(-c2ccc3nccc(Nc4ccc(N5CCN(C6CCCC6)CC5)cc4)c3c2)cc1` [4-(4-(4-(4-cyclopentylpiperazin-1-yl)phenylamino)quinolin-6-yl)benzonitrile], the Activity entry is “MAPKAPK2”.

In the case of `CC(C)N1CCN(c2ccc(Nc3ccnc4ccc(-c5ccc(C#N)cc5)cc34)cc2)CC1` [4-(4-(4-(4-isopropylpiperazin-1-yl)phenylamino)quinolin-6-yl)benzonitrile], the Activity entry is “MAPKAPK2”.

For `CN1CCN(c2ccc(Oc3ccnc4ccc(-c5ccc(C#N)cc5)cc34)cc2)CC1` [4-(4-(4-(4-methylpiperazin-1-yl)phenoxy)quinolin-6-yl)benzonitrile], the Activity entry is “MAPKAPK2”.

On to `CC1CCN(c2ccc(Nc3ccnc4ccc(-c5ccc(C#N)cc5)cc34)cc2)CC1` [4-(4-(4-(4-methylpiperidin-1-yl)phenylamino)quinolin-6-yl)benzonitrile], for which the Activity entry was “MAPKAPK2”.

Consider `CN1CCC(N(C)c2ccc(Nc3ccnc4ccc(-c5ccc(C#N)cc5)cc34)cc2)C1` (stereo not drawn) [4-(4-(4-(methyl(1-methylpyrrolidin-3-yl)amino)phenylamino)quinolin-6-yl)benzonitrile], for which the Activity result was “MAPKAPK2”.

With `CN1CCN(c2ccc(Nc3ccnc4ccc(-c5ccc(C#N)cc5)cc34)nn2)CC1` [4-(4-(6-(4-methylpiperazin-1-yl)pyridazin-3-ylamino)quinolin-6-yl)benzonitrile], the Activity entry is recorded as “MAPKAPK2”.

Take `CN1CCN(c2ccc(Nc3ccnc4ccc(-c5ccc(C#N)cc5)cc34)cn2)CC1` [4-(4-(6-(4-methylpiperazin-1-yl)pyridin-3-ylamino)quinolin-6-yl)benzonitrile]: the Activity result is recorded as “MAPKAPK2”.

Take `CN(C)C1CCN(c2ccc(Nc3ccnc4ccc(-c5ccc6c(c5)CCC6=O)cc34)cc2)C1` (stereo not drawn) [5-(4-(4-(3-(dimethylamino)pyrrolidin-1-yl)phenylamino)quinolin-6-yl)-2,3-dihydroinden-1-one]: the Activity entry is on record as “MAPKAPK2”.

Values taken from patent US7452887B2, “Quinoline- and isoquinoline-based compounds exhibiting ATP-utilizing enzyme inhibitory activity, and compositions, and uses thereof” (Amphora Discovery Corporation, priority 2004, dated 2008).
